From the NIST ThermoML archive (doi:10.1021/je700260f)
Values joined by “and” are separate entries in the source; they are usually repeats but may differ in a detail not shown here. Identical values can stand only once.

Settings: Liquid, Vibrating tube method

FC(C(F)(F)F)C(F)(F)F [1,1,1,2,3,3,3-heptafluoropropane]
Settings	mass density
283.14 K, 31470 kPa	1570.9 kg/m3
283.14 K, 31923 kPa	1572.2 kg/m3
283.14 K, 31954 kPa	1572.2 kg/m3
283.14 K, 31990 kPa	1572.3 kg/m3
283.14 K, 32053 kPa	1572.5 kg/m3
283.14 K, 32196 kPa	1572.9 kg/m3
283.14 K, 32239 kPa	1573 kg/m3
283.14 K, 32276 kPa	1573 kg/m3
283.14 K, 32317 kPa	1573.1 kg/m3
283.14 K, 32360 kPa	1573.2 kg/m3
283.14 K, 32439 kPa	1573.5 kg/m3
283.14 K, 32476 kPa	1573.6 kg/m3
283.14 K, 32513 kPa	1573.7 kg/m3
283.14 K, 32546 kPa	1573.8 kg/m3
283.14 K, 32585 kPa	1573.8 kg/m3
283.14 K, 32618 kPa	1574 kg/m3
283.14 K, 32651 kPa	1574 kg/m3
283.14 K, 32687 kPa	1574.2 kg/m3
283.14 K, 32724 kPa	1574.4 kg/m3
283.14 K, 32761 kPa	1574.4 kg/m3
283.14 K, 32793 kPa	1574.4 kg/m3
283.14 K, 32841 kPa	1574.7 kg/m3
283.14 K, 32986 kPa	1574.9 kg/m3
283.14 K, 33019 kPa	1575.2 kg/m3
283.14 K, 33051 kPa	1575.2 kg/m3
283.14 K, 33098 kPa	1575.1 kg/m3
283.14 K, 33128 kPa	1575.4 kg/m3
283.14 K, 33158 kPa	1575.5 kg/m3
283.14 K, 33205 kPa	1575.6 kg/m3
283.14 K, 33237 kPa	1575.7 kg/m3
283.14 K, 33312 kPa	1575.9 kg/m3
283.15 K, 461 kPa	1449.6 kg/m3 and 1449.7 kg/m3 and 1449.5 kg/m3
283.15 K, 462 kPa	1449.6 kg/m3 and 1449.5 kg/m3 and 1449.7 kg/m3
283.15 K, 463 kPa	1449.6 kg/m3
283.15 K, 465 kPa	1449.6 kg/m3
283.15 K, 485 kPa	1449.7 kg/m3
283.15 K, 513 kPa	1449.9 kg/m3
283.15 K, 538 kPa	1450.1 kg/m3
283.15 K, 571 kPa	1450.2 kg/m3
283.15 K, 601 kPa	1450.5 kg/m3
283.15 K, 635 kPa	1450.8 kg/m3
283.15 K, 666 kPa	1450.9 kg/m3
283.15 K, 696 kPa	1451.1 kg/m3
283.15 K, 723 kPa	1451.2 kg/m3
283.15 K, 745 kPa	1451.3 kg/m3
283.15 K, 785 kPa	1451.6 kg/m3
283.15 K, 825 kPa	1451.8 kg/m3
283.15 K, 870 kPa	1452 kg/m3
283.15 K, 902 kPa	1452.3 kg/m3
283.15 K, 2647 kPa	1462.4 kg/m3
283.15 K, 2695 kPa	1462.6 kg/m3
283.15 K, 2733 kPa	1462.7 kg/m3
283.15 K, 2772 kPa	1462.9 kg/m3
283.15 K, 2817 kPa	1463.3 kg/m3
283.15 K, 2855 kPa	1463.4 kg/m3
283.15 K, 2910 kPa	1463.7 kg/m3
283.15 K, 2943 kPa	1464 kg/m3
283.15 K, 2982 kPa	1464.2 kg/m3
283.15 K, 3012 kPa	1464.3 kg/m3
283.15 K, 3043 kPa	1464.5 kg/m3
283.15 K, 3065 kPa	1464.6 kg/m3
283.15 K, 3097 kPa	1464.7 kg/m3
283.15 K, 3117 kPa	1464.9 kg/m3
283.15 K, 3653 kPa	1467.8 kg/m3
283.15 K, 3681 kPa	1467.9 kg/m3
283.15 K, 3713 kPa	1468.1 kg/m3
283.15 K, 3737 kPa	1468.2 kg/m3
283.15 K, 3764 kPa	1468.5 kg/m3
283.15 K, 3789 kPa	1468.4 kg/m3
283.15 K, 3818 kPa	1468.6 kg/m3
283.15 K, 3851 kPa	1468.8 kg/m3
283.15 K, 3880 kPa	1469 kg/m3
283.15 K, 3906 kPa	1469.1 kg/m3
283.15 K, 3935 kPa	1469.3 kg/m3
283.15 K, 3961 kPa	1469.4 kg/m3
283.15 K, 4806 kPa	1473.8 kg/m3
283.15 K, 4895 kPa	1474.2 kg/m3
283.15 K, 4922 kPa	1474.4 kg/m3
283.15 K, 4945 kPa	1474.4 kg/m3
283.15 K, 5000 kPa	1474.7 kg/m3
283.15 K, 5032 kPa	1474.9 kg/m3
283.15 K, 5060 kPa	1475.1 kg/m3
283.15 K, 5088 kPa	1475.3 kg/m3
283.15 K, 5115 kPa	1475.2 kg/m3
283.15 K, 5147 kPa	1475.5 kg/m3
283.15 K, 5176 kPa	1475.7 kg/m3
283.15 K, 5204 kPa	1475.8 kg/m3
283.15 K, 5232 kPa	1476 kg/m3
283.15 K, 5260 kPa	1476.1 kg/m3
283.15 K, 5284 kPa	1476.2 kg/m3
283.15 K, 5323 kPa	1476.4 kg/m3
283.15 K, 5350 kPa	1476.5 kg/m3
283.15 K, 5373 kPa	1476.8 kg/m3
283.15 K, 5402 kPa	1476.8 kg/m3
283.15 K, 5425 kPa	1477 kg/m3
283.15 K, 5522 kPa	1477.4 kg/m3
283.15 K, 5563 kPa	1477.6 kg/m3
283.15 K, 5594 kPa	1477.8 kg/m3
283.15 K, 5634 kPa	1478 kg/m3
283.15 K, 5666 kPa	1478.1 kg/m3
283.15 K, 6204 kPa	1480.7 kg/m3
283.15 K, 6271 kPa	1480.9 kg/m3
283.15 K, 6297 kPa	1481.2 kg/m3
283.15 K, 6322 kPa	1481.4 kg/m3
283.15 K, 6344 kPa	1481.4 kg/m3
283.15 K, 6375 kPa	1481.6 kg/m3
283.15 K, 6406 kPa	1481.7 kg/m3
283.15 K, 6431 kPa	1481.9 kg/m3
283.15 K, 6461 kPa	1481.9 kg/m3
283.15 K, 6486 kPa	1482.3 kg/m3
283.15 K, 6517 kPa	1482.3 kg/m3
283.15 K, 6547 kPa	1482.4 kg/m3
283.15 K, 6577 kPa	1482.5 kg/m3
283.15 K, 6611 kPa	1482.7 kg/m3
283.15 K, 6635 kPa	1482.9 kg/m3
283.15 K, 6659 kPa	1483.1 kg/m3
283.15 K, 6686 kPa	1483.1 kg/m3
283.15 K, 6713 kPa	1483.1 kg/m3
283.15 K, 6738 kPa	1483.2 kg/m3
283.15 K, 6762 kPa	1483.3 kg/m3
283.15 K, 6790 kPa	1483.5 kg/m3
283.15 K, 6822 kPa	1483.7 kg/m3
283.15 K, 6853 kPa	1483.9 kg/m3
283.15 K, 6877 kPa	1484 kg/m3
283.15 K, 6913 kPa	1484.2 kg/m3
283.15 K, 6937 kPa	1484.3 kg/m3
283.15 K, 6998 kPa	1484.5 kg/m3
283.15 K, 7022 kPa	1484.7 kg/m3
283.15 K, 7050 kPa	1484.8 kg/m3
283.15 K, 7079 kPa	1485 kg/m3
283.15 K, 7107 kPa	1485 kg/m3
283.15 K, 7134 kPa	1485.2 kg/m3
283.15 K, 7154 kPa	1485.2 kg/m3
283.15 K, 7185 kPa	1485.5 kg/m3
283.15 K, 7209 kPa	1485.6 kg/m3
283.15 K, 7237 kPa	1485.7 kg/m3
283.15 K, 7266 kPa	1485.9 kg/m3
283.15 K, 7293 kPa	1485.9 kg/m3
283.15 K, 7325 kPa	1486.1 kg/m3
283.15 K, 7349 kPa	1486.2 kg/m3
283.15 K, 7385 kPa	1486.3 kg/m3
283.15 K, 7415 kPa	1486.5 kg/m3
283.15 K, 7443 kPa	1486.7 kg/m3
283.15 K, 8348 kPa	1490.8 kg/m3
283.15 K, 8383 kPa	1491.1 kg/m3
283.15 K, 8413 kPa	1491.1 kg/m3
283.15 K, 8453 kPa	1491.2 kg/m3
283.15 K, 8481 kPa	1491.5 kg/m3
283.15 K, 8520 kPa	1491.6 kg/m3
283.15 K, 8545 kPa	1491.6 kg/m3
283.15 K, 8576 kPa	1491.9 kg/m3
283.15 K, 8606 kPa	1492 kg/m3
283.15 K, 8641 kPa	1492.2 kg/m3
283.15 K, 8667 kPa	1492.3 kg/m3
283.15 K, 8702 kPa	1492.4 kg/m3
283.15 K, 8724 kPa	1492.5 kg/m3
283.15 K, 8755 kPa	1492.6 kg/m3
283.15 K, 8782 kPa	1492.8 kg/m3
283.15 K, 8808 kPa	1492.9 kg/m3
283.15 K, 8841 kPa	1492.9 kg/m3
283.15 K, 8868 kPa	1493.1 kg/m3
283.15 K, 8904 kPa	1493.4 kg/m3
283.15 K, 8936 kPa	1493.4 kg/m3
283.15 K, 8973 kPa	1493.5 kg/m3
283.15 K, 9000 kPa	1493.8 kg/m3
283.15 K, 9041 kPa	1493.9 kg/m3
283.15 K, 9068 kPa	1494 kg/m3
283.15 K, 9104 kPa	1494.2 kg/m3
283.15 K, 9140 kPa	1494.3 kg/m3
283.15 K, 9167 kPa	1494.5 kg/m3
283.15 K, 9194 kPa	1494.6 kg/m3
283.15 K, 9230 kPa	1494.7 kg/m3
283.15 K, 9266 kPa	1495 kg/m3
283.15 K, 9294 kPa	1495.1 kg/m3
283.15 K, 9330 kPa	1495.1 kg/m3
283.15 K, 9361 kPa	1495.3 kg/m3
283.15 K, 9403 kPa	1495.5 kg/m3
283.15 K, 9441 kPa	1495.7 kg/m3
283.15 K, 9483 kPa	1495.8 kg/m3
283.15 K, 9641 kPa	1496.6 kg/m3
283.15 K, 9679 kPa	1496.6 kg/m3
283.15 K, 9707 kPa	1496.9 kg/m3
283.15 K, 9754 kPa	1497 kg/m3
283.15 K, 9777 kPa	1497.2 kg/m3
283.15 K, 9809 kPa	1497.3 kg/m3
283.15 K, 9842 kPa	1497.5 kg/m3
283.15 K, 9875 kPa	1497.5 kg/m3
283.15 K, 9912 kPa	1497.8 kg/m3
283.15 K, 9941 kPa	1497.8 kg/m3
283.15 K, 9979 kPa	1498 kg/m3
283.15 K, 10009 kPa	1498.1 kg/m3
283.15 K, 10055 kPa	1498.3 kg/m3
283.15 K, 10080 kPa	1498.4 kg/m3
283.15 K, 10109 kPa	1498.5 kg/m3
283.15 K, 10139 kPa	1498.7 kg/m3
283.15 K, 10164 kPa	1498.8 kg/m3
283.15 K, 10198 kPa	1499 kg/m3
283.15 K, 10233 kPa	1499.2 kg/m3
283.15 K, 10254 kPa	1499.2 kg/m3
283.15 K, 10289 kPa	1499.3 kg/m3
283.15 K, 10314 kPa	1499.5 kg/m3
283.15 K, 10348 kPa	1499.7 kg/m3
283.15 K, 10370 kPa	1499.7 kg/m3
283.15 K, 10399 kPa	1499.7 kg/m3
283.15 K, 10424 kPa	1500.1 kg/m3
